Patent US9499551B2, “Substituted pyrrolo[2,3-b]pyridines for treating cancer or inflammatory diseases” (Confluence Life Sciences, Inc., priority 2014, dated 2016)
pIC50: −log10 of the molar value.

Target: T1, TAK1-TAB1 (Homo sapiens, UniProt O43318)
T1 sequence (O43318 with tags, fused parts or gaps limits assumed): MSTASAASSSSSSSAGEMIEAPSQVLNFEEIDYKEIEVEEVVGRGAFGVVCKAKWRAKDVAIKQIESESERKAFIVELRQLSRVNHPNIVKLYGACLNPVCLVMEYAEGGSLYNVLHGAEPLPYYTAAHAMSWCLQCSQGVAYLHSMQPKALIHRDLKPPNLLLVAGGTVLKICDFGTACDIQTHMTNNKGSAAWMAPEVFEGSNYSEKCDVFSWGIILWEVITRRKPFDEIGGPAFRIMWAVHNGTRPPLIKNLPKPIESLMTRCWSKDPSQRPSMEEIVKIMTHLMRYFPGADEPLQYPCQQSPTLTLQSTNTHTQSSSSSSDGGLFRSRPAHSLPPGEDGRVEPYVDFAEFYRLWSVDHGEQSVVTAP
Assay: TAK1-TAB1 binding inhibitory potency (LanthaScreen competitive binding assay, kinase tracer-236)
Settings: 10 nM TAK1-TAB1, 100 nM kinase tracer-236; read-out: TAK1-Tab Inhibition IC50
Excerpt: TAK1-TAB1 Binding Inhibitory Potency:
The ability of candidate compounds to interact with TAK1-TAB1 is quantitated by a competitive binding assay using the LanthaScreen technology developed by Life Technologies. This assay is based on the binding of a proprietary, Alexa Fluor® 647-labeled, ATP-competitive kinase inhibitor (kinase tracer-236) to the TAK1-TAB1 construct in presence of a europium-conjugated antibody, resulting in a FRET (fluorescence resonance energy transfer) signal. Displacement of the kinase tracer by compound results in a lower emission ratio upon excitation of the europium chelate. Candidate compounds are designed as potential irreversible inhibitors of TAK1-TAB1, capable of ligating to an active site cysteine residue. The time dependent nature of irreversible inhibition is investigated by performing the binding assay with and without a pre-incubation of compound and TAK1-TAB1.
The inhibitory potency of candidate compounds is measured in 20 mM HEPES pH 7.5, 10 mM MgCl2, 0.01% BSA, 0.0005% Tween-20, and 2% DMSO in the presence of 10 nM TAK1-TAB1, 2 nM Eu-anti-his antibody, and 100 nM kinase tracer-236 using a 384-well plate format. Background signal is defined in the absence of TAK1-TAB1 and uninhibited signal is defined in the presence of vehicle (2% DMSO) alone. Compounds were evaluated in an 11 point dose-response ranging from 20 μM to 0.34 nM. The binding assays are performed under two conditions to evaluate time dependence of inhibition. For the pre-incubation assay, TAK1-TAB1 and Eu-anti-his antibody are preincubated with compound or vehicle for two hours prior to the addition of kinase tracer. The non-preincubated assay is run in which TAK1-TAB1 and Eu-anti-his antibody are added to a mixture of compound and kinase tracer. IC50 values of compounds are determined using a 4 parameter logistical fit of emission ratio as a function of the concentration of compound. […]

Row | Structure (SMILES) | pIC50
1 | C=C(C)C(=O)Nc1c[nH]c2ncc(-c3ccccc3)cc12 [Example 233, N-(5-phenyl-1H-pyrrolo[2,3-b]pyridin-3-yl) methacrylamide] | < 6.00
2 | C/C=C/C(=O)Nc1c[nH]c2ncc(-c3ccccc3)cc12 [Example 235, (E)-N-(5-phenyl-1H-pyrrolo[2,3-b]pyridin-3-yl)but-2-enamide] | < 6.00
3 | CC(C)(O)c1ccc(-c2cnc3[nH]cc(/C=C/C(N)=O)c3c2)cn1 [Example 312, (E)-3-(5-(6-(2-hydroxypropan-2-yl)pyridin-3-yl)-1H-pyrrolo[2,3-b]pyridin-3-yl)acrylamide] | ≥ 6.00
4 | Cc1cc(-c2cnc3[nH]cc(/C=C/C(N)=O)c3c2)cc(C(F)(F)F)c1 [Example 348, (E)-3-(5-(3-methyl-5-(trifluoromethyl)phenyl)-1H-pyrrolo[2,3-b]pyridin-3-yl)acrylamide] | ≥ 6.00
5 | CCOCCOc1ccc(-c2cnc3[nH]cc(/C=C/C(N)=O)c3c2)cn1 [Example 336, (E)-3-(5-(6-(2-ethoxyethoxy)pyridin-3-yl)-1H-pyrrolo[2,3-b]pyridin-3-yl)acrylamide] | ≥ 6.00
6 | CC(C)COc1ccc(-c2cnc3[nH]cc(/C=C/C(N)=O)c3c2)cn1 [Example 325, (E)-3-(5-(6-isobutoxypyridin-3-yl)-1H-pyrrolo[2,3-b]pyridin-3-yl)acrylamide] | ≥ 6.00
7 | CN(C)C/C=C/C(=O)Nc1c[nH]c2ncc(-c3ccccc3)cc12 [Example 241, (E)-4-(dimethylamino)-N-(5-phenyl-1H-pyrrolo[2,3-b]pyridin-3-yl)but-2-enamide] | < 6.00
8 | NC(=O)/C=C/c1c[nH]c2ncc(-c3ccc(C(=O)c4nccs4)cc3)cc12 [Example 324, (E)-3-(5-(4-(thiazole-2-carbonyl)phenyl)-1H-pyrrolo[2,3-b]pyridin-3-yl)acrylamide] | ≥ 6.00
9 | CC(=O)c1ccc(-c2cnc3[nH]cc(/C=C/C(N)=O)c3c2)cn1 [Example 303, (E)-3-(5-(6-acetylpyridin-3-yl)-1H-pyrrolo[2,3-b]pyridin-3-yl)acrylamide] | ≥ 6.00
10 | CC(C)(O)c1cccc(-c2cnc3[nH]cc(C=C(C(N)=O)C(N)=O)c3c2)c1 [Example 365, 2-((5-(3-(2-hydroxypropan-2-yl)phenyl)-1H-pyrrolo[2,3-b]pyridin-3-yl)methylene) malonamide] | ≥ 6.00
11 | NC(=O)/C=C/c1c[nH]c2ncc(-c3ccc(N4CCCCC4)nc3)nc12 [Example 320, (E)-3-(2-(6-(piperidin-1-yl)pyridin-3-yl)-5H-pyrrolo[2,3-b]pyrazin-7-yl)acrylamide] | ≥ 6.00
12 | CC(C)(O)c1ccc(-c2cnc3[nH]cc(/C=C(\C#N)C(N)=O)c3c2)cc1 [Example 360, (E)-2-cyano-3-(5-(4-(2-hydroxypropan-2-yl)phenyl)-1H-pyrrolo[2,3-b]pyridin-3-yl)acrylamide] | ≥ 6.00
13 | CC(=O)c1ccc(-c2cnc3[nH]cc(/C=C/C(N)=O)c3n2)cc1 [Example 307, (E)-3-(2-(4-acetylphenyl)-5H-pyrrolo[2,3-b]pyrazin-7-yl)acrylamide] | ≥ 6.00
14 | NC(=O)/C=C/c1c[nH]c2ncc(-c3cc(Cl)nc(C(F)(F)F)c3)cc12 [Example 350, (E)-3-(5-(2-chloro-6-(trifluoromethyl)pyridin-4-yl)-1H-pyrrolo[2,3-b]pyridin-3-yl)acrylamide] | ≥ 6.00

Next, values leading:

Row | pIC50 | Structure (SMILES)
15 | ≥ 6.00 | NC(=O)/C=C/c1c[nH]c2ncc(-c3ccc(C(=O)c4cc(F)cc(F)c4)cc3)cc12 [Example 362, (E)-3-(5-(4-(3,5-difluorobenzoyl)phenyl)-1H-pyrrolo[2,3-b]pyridin-3-yl)acrylamide]
16 | ≥ 6.00 | CCOCCn1cc(-c2cnc3[nH]cc(/C=C/C(N)=O)c3c2)ccc1=O [Example 337, (E)-3-(5-(1-(2-ethoxyethyl)-6-oxo-1,6-dihydropyridin-3-yl)-1H-pyrrolo[2,3-b]pyridin-3-yl)acrylamide]
17 | ≥ 6.00 | COc1cc(-c2cnc3[nH]cc(/C=C/C(N)=O)c3c2)cc(C(F)(F)F)c1 [Example 349, (E)-3-(5-(3-methoxy-5-(trifluoromethyl)phenyl)-1H-pyrrolo[2,3-b]pyridin-3-yl)acrylamide]
18 | ≥ 6.00 | N#C/C(=C\c1c[nH]c2ncc(-c3ccc(OCC4CC4)nc3)cc12)C(N)=O [Example 364, (E)-2-cyano-3-(5-(6-(cyclopropyl-methoxy)pyridin-3-yl)-1H-pyrrolo[2,3-b]pyridin-3-yl)acrylamide]
19 | ≥ 6.00 | NC(=O)/C=C/c1c[nH]c2ncc(-c3cccc(Oc4ccccc4)c3)cc12 [Example 341, (E)-3-(5-(3-phenoxyphenyl)-1H-pyrrolo[2,3-b]pyridin-3-yl)acrylamide]
20 | ≥ 6.00 | NC(=O)/C=C/c1c[nH]c2ncc(-c3ccc(Oc4ccccc4)cc3)cc12 [Example 342, (E)-3-(5-(4-phenoxyphenyl)-1H-pyrrolo[2,3-b]pyridin-3-yl)acrylamide]
21 | ≥ 6.00 | NC(=O)/C=C/c1c[nH]c2ncc(N3CCN(C(=O)c4ccc(F)cc4F)CC3)cc12 [Example 332, (E)-3-(5-(4-(2,4-difluorobenzoyl)piperazin-1-yl)-1H-pyrrolo[2,3-b]pyridin-3-yl)acrylamide]
22 | ≥ 6.00 | CCC(=O)c1ccc(-c2cnc3[nH]cc(/C=C/C(N)=O)c3n2)c(C)c1 [Example 314, (E)-3-(2-(2-methyl-4-propionylphenyl)-5H-pyrrolo[2,3-b]pyrazin-7-yl)acrylamide]
23 | ≥ 6.00 | CC(C)(O)c1cncc(-c2cnc3[nH]cc(/C=C/C(N)=O)c3c2)c1 [Example 311, (E)-3-(5-(5-(2-hydroxypropan-2-yl)pyridin-3-yl)-1H-pyrrolo[2,3-b]pyridin-3-yl)acrylamide]
24 | ≥ 6.00 | CC(=O)c1ccc(-c2cc3c(/C=C/C(N)=O)c[nH]c3nc2C)cc1 [Example 331, (E)-3-(5-(4-acetylphenyl)-6-methyl-1H-pyrrolo[2,3-b]pyridin-3-yl)acrylamide]
25 | ≥ 6.00 | NC(=O)/C=C/c1c[nH]c2ncc(C(=O)c3ccc(F)cc3)cc12 [Example 353, (E)-3-(5-(4-fluorobenzoyl)-1H-pyrrolo[2,3-b]pyridin-3-yl)acrylamide]
26 | ≥ 6.00 | CC(=O)c1cccc(-c2cnc3[nH]cc(/C=C/C(N)=O)c3n2)c1 [Example 306, (E)-3-(2-(3-acetylphenyl)-5H-pyrrolo[2,3-b]pyrazin-7-yl)acrylamide]
27 | ≥ 6.00 | CC(=O)c1cncc(-c2cnc3[nH]cc(/C=C/C(N)=O)c3c2)c1 [Example 304, (E)-3-(5-(5-acetylpyridin-3-yl)-1H-pyrrolo[2,3-b]pyridin-3-yl)acrylamide]
28 | ≥ 6.00 | CN(C)C(=O)c1cnc2[nH]cc(/C=C/C(N)=O)c2c1 [Example 355, (E)-3-(3-amino-3-oxoprop-1-en-1-yl)-N,N-dimethyl-1H-pyrrolo[2,3-b]pyridine-5-carboxamide]
29 | ≥ 6.00 | CC(C)OC(=O)N1CCN(c2cnc3[nH]cc(/C=C/C(N)=O)c3c2)CC1 [Example 301, (E)-isopropyl 4-(3-(3-amino-3-oxoprop-1-en-1-yl)-1H-pyrrolo[2,3-b]pyridin-5-yl)piperazine-1-carboxylate]
30 | ≥ 6.00 | Cc1nc(C(=O)N(C)C)ccc1-c1cnc2[nH]cc(/C=C/C(N)=O)c2c1 [Example 351, (E)-5-(3-(3-amino-3-oxoprop-1-en-1-yl)-1H-pyrrolo[2,3-b]pyridin-5-yl)-N,N,6-trimethyl-picolinamide]
31 | ≥ 6.00 | CC(C)c1ccc(C(=O)N2CCN(c3cnc4[nH]cc(/C=C/C(N)=O)c4c3)CC2)cc1 [Example 335, (E)-3-(5-(4-(4-isopropylbenzoyl)piperazin-1-yl)-1H-pyrrolo[2,3-b]pyridin-3-yl)acrylamide]
32 | ≥ 6.00 | NC(=O)/C=C/c1c[nH]c2ncc(C(=O)c3ccccc3)cc12 [Example 338, (E)-3-(5-benzoyl-1H-pyrrolo[2,3-b]pyridin-3-yl)acrylamide]
33 | ≥ 6.00 | CN1CCC(C(=O)c2ccc(-c3cnc4[nH]cc(/C=C/C(N)=O)c4c3)cc2)CC1 [Example 334, (E)-3-(5-(4-(1-methylpiperidine-4-carbonyl)phenyl)-1H-pyrrolo[2,3-b]pyridin-3-yl)acrylamide]
34 | ≥ 6.00 | NC(=O)/C=C/c1c[nH]c2ncc(-c3ccc(=O)n(CC4CC4)c3)cc12 [Example 328, (E)-3-(5-(1-(cyclopropyl-methyl)-6-oxo-1,6-dihydropyridin-3-yl)-1H-pyrrolo[2,3-b]pyridin-3-yl)acrylamide]
